Experimental data published in a compilation of properties of binary mixtures (doi:10.1021/je700428f).

Test: xn = mol fraction of the nth substance listed
Details: 100 kPa

CCCO + C=CC[n+]1ccn(C)c1.O=S(=O)([N-]S(=O)(=O)C(F)(F)F)C(F)(F)F
speed of sound (298.15 K, x2 = 0): 1206.5 m/s | speed of sound (338.15 K, x2 = 0): 1071.5 m/s | speed of sound (343.15 K, x2 = 0): 1054.5 m/s

C=CC[n+]1ccn(C)c1.O=S(=O)([N-]S(=O)(=O)C(F)(F)F)C(F)(F)F + CCCO
speed of sound (298.15 K, x1 = 0.2987): 1189.5 m/s | speed of sound (308.15 K, x1 = 0.8024): 1207.5 m/s | speed of sound (313.15 K, x1 = 0.5004): 1173.5 m/s | speed of sound (323.15 K, x1 = 0.2987): 1127.5 m/s

CC[S+](CC)CC.O=S(=O)([N-]S(=O)(=O)C(F)(F)F)C(F)(F)F + CCCO
speed of sound (293.15 K, x1 = 0.0493): 1205.5 m/s | speed of sound (308.15 K, x1 = 0.0493): 1159.5 m/s | speed of sound (323.15 K, x1 = 0.903): 1181.5 m/s

CCCO + CC[S+](CC)CC.O=S(=O)([N-]S(=O)(=O)C(F)(F)F)C(F)(F)F
speed of sound (338.15 K, x2 = 0): 1071.5 m/s | speed of sound (343.15 K, x2 = 0): 1054.5 m/s
